Results as given in paper PMC12621043, “Un-LOK-ing a New Approach for Conformational Selective Targeting of STK10 (LOK)” (ACS Medicinal Chemistry Letters, 2025).
Like-named read-outs stand apart in the source and are kept apart here.

Tests used:
BRK = details: Figure 1; reference not given; read-out: BRK in vitro IC50; cited from earlier work
TIE2 = details: Figure 1; reference not given; read-out: TIE2 in vitro IC50; cited from earlier work
STK10 [1] = biological target: T1, STK10 (Homo sapiens, UniProt O94804); details: Figure 1; reference not given; read-out: STK10 in vitro IC50; cited from earlier work
T1 construct: purchased in-house DSF kinase panel (SGC-style construct names; the trailing letter is the construct ID)

SLK [2] = biological target: T2, SLK (Homo sapiens, UniProt Q9H2G2); experiment: PhosphoSens in vitro activity assay; type: biochemical; details: ATP 150 μM
STK10 [3] = biological target: T1, STK10; experiment: DSF Tm panel; type: binding; details: 10 μM compound
STK10 [4] = biological target: T1, STK10; experiment: PhosphoSens in vitro activity assay; type: biochemical; details: ATP 160 μM
SLK [5] = biological target: T2, SLK; experiment: DSF Tm panel; type: binding; parameters: purchased in-house DSF kinase panel (SGC-style construct names; the trailing letter is the construct ID); details: 10 μM compound
SLK [6] = biological target: T2, SLK; experiment: NanoBRET target engagement assay; type: cell-based; parameters: has a greater impact on the full-length protein than on the kinase domains; host or cells: HEK293T (ATCC CRL-3216); details: HEK293T cells

T1 sequence (O94804 18-317 limits assumed): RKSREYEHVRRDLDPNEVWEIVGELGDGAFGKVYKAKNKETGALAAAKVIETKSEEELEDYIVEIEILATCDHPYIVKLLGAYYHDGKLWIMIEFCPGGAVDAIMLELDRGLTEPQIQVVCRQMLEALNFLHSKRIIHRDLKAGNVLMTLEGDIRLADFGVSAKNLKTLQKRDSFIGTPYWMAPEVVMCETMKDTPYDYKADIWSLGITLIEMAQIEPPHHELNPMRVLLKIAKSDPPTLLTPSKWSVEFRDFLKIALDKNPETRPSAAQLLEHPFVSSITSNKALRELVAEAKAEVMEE

In the case of COc1ccc2cc(-c3c(-c4ccncc4)nc(-c4ccc(S(C)(=O)=O)cc4C)n3C)ccc2c1 [SB-633825 (3), SB-633825], the IC50 (BRK) is given as 150 nM, the IC50 (TIE2) is given as 3.5 nM and the IC50 (STK10 [1]) is given as 66 nM.
For Cc1cc(F)ccc1CNC(=O)Nc1ccc2cc1OCCOCCNc1ccn3ncc-2c3n1 [compound 22], the IC50 (SLK [2]) was 3130 ± 930 nM, the ΔTm at 10 µM (STK10 [3]) was 8.3 °C and the IC50 (STK10 [4]) was 3160 ± 670 nM. The ΔTm at 10 µM (SLK [5]) was 3.7 °C and the EC50 (SLK [6]) was > 50000 nM.
For Cc1cc(C(F)(F)F)ccc1CNC(=O)Nc1ccc2cc1OCCOCCNc1ccn3ncc-2c3n1 [compound 25], the IC50 (SLK [2]) was 2690 ± 510 nM, the ΔTm at 10 µM (STK10 [3]) was 9 °C and the IC50 (STK10 [4]) was 1070 ± 110 nM. For the same compound, the ΔTm at 10 µM (SLK [5]) was 3.8 °C and the EC50 (SLK [6]) was > 50000 nM.
